Results from PubChem BioAssay (NCI).
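How tested: cells in 96-well plates exposed to compound for 48 hours at five concentrations. GI50 = concentration required for 50% inhibition of growth. The concentration for full growth arrest is given as TGI.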

Legend:
Test in all cases: NCI-60 cell line screen, 48 h
[1] = tested on: TK-10 renal
[2] = tested on: RPMI-8226 leukemia
[3] = tested on: UACC-257 melanoma
[4] = tested on: NCI-H23 lung
[5] = tested on: K-562 leukemia
[6] = tested on: HT29 colon
[7] = tested on: CAKI-1 renal
[8] = tested on: SF-268 CNS
[9] = tested on: U251 CNS
[10] = tested on: KM12 colon
[11] = tested on: 786-0 renal
[12] = tested on: HCC-2998 colon
[13] = tested on: HL-60(TB) leukemia
[14] = tested on: MALME-3M melanoma
[15] = tested on: NCI-H460 lung
[16] = tested on: DU-145 prostate
[17] = tested on: MDA-MB-468 breast
[18] = tested on: LOX IMVI melanoma
[19] = tested on: SR leukemia
[20] = tested on: HS 578T breast
[21] = tested on: SF-539 CNS
[22] = tested on: MDA-MB-231 breast
[23] = tested on: HOP-92 NSCLC
[24] = tested on: MCF7 breast
[25] = tested on: ACHN renal
[26] = tested on: HOP-62 NSCLC
[27] = tested on: IGROV1 ovarian
[28] = tested on: OVCAR-3 ovarian
[29] = tested on: SW-620 colon
[30] = tested on: A498 renal
[31] = tested on: COLO 205 colon
[32] = tested on: T-47D breast
[33] = tested on: SK-OV-3 ovarian
[34] = tested on: MOLT-4 leukemia
[35] = tested on: NCI-H226 lung
[36] = tested on: UO-31 renal
[37] = tested on: HCT-15 colon
[38] = tested on: CCRF-CEM leukemia
[39] = tested on: OVCAR-4 ovarian
[40] = tested on: SNB-75 CNS
[41] = tested on: HCT-116 colon
[42] = tested on: SK-MEL-2 melanoma
[43] = tested on: UACC-62 melanoma
[44] = tested on: M14 melanoma
[45] = tested on: SF-295 CNS
[46] = tested on: PC-3 prostate
[47] = tested on: NCI-H522 lung
[48] = tested on: EKVX NSCLC
[49] = tested on: SK-MEL-28 melanoma
[50] = tested on: OVCAR-5 ovarian
[51] = tested on: RXF 393 renal
[52] = tested on: OVCAR-8 ovarian
[53] = tested on: MDA-MB-435
[54] = tested on: SK-MEL-5 melanoma
[55] = tested on: BT-549 breast
[56] = tested on: A549 NSCLC
[57] = tested on: SN12C renal

`O=C(/C=C/c1ccc(F)cc1)c1nc2ccccc2n1Cc1ccc(Br)cc1` showed a GI50 [1] of 2.73 µM, a TGI [1] of 8.11 µM and a GI50 [2] of 2.29 µM. It also gave a TGI [2] of 6.87 µM, a GI50 [3] of 3.2 µM and a TGI [3] of 14.7 µM. It also gave a GI50 [4] of 1.95 µM, a TGI [4] of 4.37 µM and a GI50 [5] of 2.84 µM. For the same compound, the TGI [5] was greater than 100 µM, the GI50 [6] was 2.37 µM and the TGI [6] was 4.93 µM. It also gave a GI50 [7] of 1.97 µM, a TGI [7] of 5.74 µM and a GI50 [8] of 3.58 µM. For the same compound, the TGI [8] was 67.8 µM, the GI50 [9] was 1.54 µM and the TGI [9] was 2.99 µM. It also gave a GI50 [10] of 2.13 µM, a TGI [10] of 5.22 µM and a GI50 [11] of 1.93 µM. The TGI [11] was 3.89 µM, the GI50 [12] was 1.81 µM and the TGI [12] was 3.36 µM. For the same compound, the GI50 [13] was 2.02 µM, the TGI [13] was 6.3 µM and the GI50 [14] was 1.83 µM. It also gave a TGI [14] of 4.17 µM, a GI50 [15] of 1.89 µM and a TGI [15] of 4 µM. The GI50 [16] was 3.47 µM, the TGI [16] was 26 µM and the GI50 [17] was 1.9 µM. The TGI [17] was 4.12 µM, the GI50 [18] was 1.59 µM and the TGI [18] was 3.06 µM. The GI50 [19] was 2.79 µM, the TGI [19] was greater than 100 µM and the GI50 [20] was 3.71 µM. The TGI [20] was 43.3 µM, the GI50 [21] was 1.91 µM and the TGI [21] was 3.8 µM. For the same compound, the GI50 [22] was 2.1 µM, the TGI [22] was 4.66 µM and the GI50 [23] was 2.03 µM. For the same compound, the TGI [23] was 12.1 µM, the GI50 [24] was 1.72 µM and the TGI [24] was 9.27 µM. For the same compound, the GI50 [25] was 2.8 µM, the TGI [25] was 8.7 µM and the GI50 [26] was 2.1 µM. The TGI [26] was 4.87 µM, the GI50 [27] was 2.31 µM and the TGI [27] was 5.81 µM. It also gave a GI50 [28] of 1.76 µM, a TGI [28] of 3.42 µM and a GI50 [29] of 2.14 µM. The TGI [29] was 4.44 µM, the GI50 [30] was 17.2 µM and the TGI [30] was 32.1 µM. For the same compound, the GI50 [31] was 2.35 µM, the TGI [31] was 5.55 µM and the GI50 [32] was 2.68 µM. The TGI [32] was 11.3 µM, the GI50 [33] was 10.5 µM and the TGI [33] was greater than 100 µM. For the same compound, the GI50 [34] was 2.41 µM, the TGI [34] was 8.96 µM and the GI50 [35] was 2.96 µM. For the same compound, the TGI [35] was 13.1 µM, the GI50 [36] was 1.42 µM and the TGI [36] was 2.93 µM. The GI50 [37] was 1.67 µM, the TGI [37] was 3.46 µM and the GI50 [38] was 1.62 µM. It also gave a TGI [38] of 8.35 µM, a GI50 [39] of 4.3 µM and a TGI [39] of 51.4 µM. It also gave a GI50 [40] of 1.2 µM, a TGI [40] of 12.2 µM and a GI50 [41] of 1.96 µM. The TGI [41] was 4.26 µM, the GI50 [42] was 2.12 µM and the TGI [42] was 4.74 µM. The GI50 [43] was 1.74 µM, the TGI [43] was 4.3 µM and the GI50 [44] was 2.33 µM. For the same compound, the TGI [44] was 6.43 µM, the GI50 [45] was 2.14 µM and the TGI [45] was 5.29 µM. It also gave a GI50 [46] of 3.37 µM, a TGI [46] of 13.7 µM and a GI50 [47] of 2.17 µM. For the same compound, the TGI [47] was 4.68 µM, the GI50 [48] was 2.62 µM and the TGI [48] was 7.78 µM. It also gave a GI50 [49] of 1.85 µM, a TGI [49] of 3.77 µM and a GI50 [50] of 1.94 µM. It also gave a TGI [50] of 4.16 µM, a GI50 [51] of 1.48 µM and a TGI [51] of 2.89 µM. The GI50 [52] was 2.26 µM, the TGI [52] was 5.51 µM and the GI50 [53] was 1.85 µM. It also gave a TGI [53] of 4.19 µM, a GI50 [54] of 2.36 µM and a TGI [54] of 6.69 µM. For the same compound, the GI50 [55] was 2.24 µM, the TGI [55] was 5.81 µM and the GI50 [56] was 3.93 µM. For the same compound, the TGI [56] was 35.3 µM, the GI50 [57] was 3.02 µM and the TGI [57] was 11.1 µM.
